The text below walks through data of patent publication US20240417410A1, “TRICYCLIC COMPOUNDS FOR THE TREATMENT OF CANCER” (Hoffmann-La Roche Inc., priority 2023, published 2024).

One assay concerns AGS cells (KRAS G12D). In words: Cell viability assay (Cell Counting Kit-8, 3-day). Particulars: Homo sapiens, 72 h, 72 hrs incubation. The class given is cell-based, human. The procedure, abridged: (§1)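 Read-out is CCK-8 absorbance (OD450 minus OD650, 2 hrs after reagent), reflecting NADPH after 72 hrs of compound exposure in 0.5% DMSO. Seeding density was 5,000 cells/well for NCI-H358 and 2,000 for AGS and SW620. IC50 derived by 4-parameter sigmoidal fitting.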

In assay [1] the test system is NCI-H358 cells (KRAS G12C). In words: Cell viability assay (Cell Counting Kit-8, 3-day). The class given is cell-based, human. Particulars: Homo sapiens, NCI-H358, 72 h, NCI-H358, 72 hrs incubation. The procedure, abridged: as §1
The next assay deals with SW620 cells (KRAS G12V). Kind of assay: Cell viability assay (Cell Counting Kit-8, 3-day). The format is cell-based, human. Particulars: Homo sapiens, SW-620; SW620, 72 hrs incubation. The procedure, abridged:
as §1

The next assay has as its target KRAS G12C-BRAF complex (Homo sapiens (Human), UniProt P01116+P62937, G12C). In words: KRAS-BRAF with CYPA (500 nM) interaction assay (TR-FRET, Example 136). To be noted: KRAS G12C-BRAF disruption. The format is biochemical. As for the experimental part:
In this example, TR-FRET was also used to measure the compound or compound-CYPA dependent disruption of the KRAS G12C-BRAF complex. This protocol was also used to measure disruption of KRAS G12D or KRAS G12V binding to BRAF by a compound of the invention, respectively. In assay buffer containing 25 mM HEPES PH=7.4 (4-(2-hydroxyethyl)-1-piperazineethanesulfonic acid, Thermo, 15630080), 0.002% Tween20, 0.1% BSA, 100 mM NaCl, 5 mM MgCl2, 10 μM GMPPNP (Guanosine 5′-[β,γ-imido]triphosphate trisodium salt hydrate, Sigma, G0635), […] 384-well assay plate at final concentrations of 50 nM, 6.25 nM and 1 nM, respectively. Compound was present in plate wells as a 16-point 3-fold dilution series starting at a final concentration of 10 μM and incubated for 3 hours. A mixture of MAb Anti-6His-XL665 (Cisbio, 61HISXLB) and Mab anti-GST-TB cryptate (Cisbio, 61GSTTLB) was then added at a final concentration of 6.67 nM and 0.21 nM, respectively, and the plate was incubated for an additional 1.5 hours. TR-FRET signal was read on a PHERstar FSX microplate reader (Ex320 nm, Em 665/615 nm). Compounds that facilitate disruption of the KRAS-BRAF complex were identified as those eliciting a decrease in the TR-FRET ratio relative to DMSO control wells.

Assay [2] concerns phosphorylation of ERK, KRAS G12C in NCI-H358 cells. Kind of assay: pERK inhibition assay. The class given is cell-based. To be noted: Homo sapiens, NCI-H358, 4 h. The procedure, abridged: (§2)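 Cells in RPMI-1640 with 10% FBS were plated overnight (30,000/well H358, 20,000 AGS, 30,000 SW620) and treated 4 h with compounds at 0.5% DMSO. After formaldehyde fixation and methanol permeabilization, pERK was detected by in-cell ELISA with HRP secondary and TMB (OD450); IC50 from 4-parameter fit.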

Assay [3] deals with phosphorylation of ERK, KRAS G12D in AGS cells. Kind of assay: pERK inhibition assay. Particulars: Homo sapiens, AGS, 4 h. The format is cell-based. The procedure, abridged:
as §2

Assay [4] deals with phosphorylation of ERK, KRAS G12V in SW620. Kind of assay: pERK inhibition assay. The format is cell-based. Particulars: Homo sapiens, SW-620, 4 h, SW620 cells. The procedure, abridged: as §2

Structures are written as SMILES.

Sequence of KRAS G12C-BRAF complex (P01116-2 other isoform, or with tags, fused parts or gaps G12C): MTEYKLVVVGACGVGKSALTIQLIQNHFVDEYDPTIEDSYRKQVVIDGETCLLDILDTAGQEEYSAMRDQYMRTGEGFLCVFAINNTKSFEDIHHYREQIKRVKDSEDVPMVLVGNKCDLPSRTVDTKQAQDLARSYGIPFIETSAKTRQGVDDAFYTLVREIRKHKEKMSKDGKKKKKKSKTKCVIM
Sequence of KRAS G12C-BRAF complex (P62937 whole entry): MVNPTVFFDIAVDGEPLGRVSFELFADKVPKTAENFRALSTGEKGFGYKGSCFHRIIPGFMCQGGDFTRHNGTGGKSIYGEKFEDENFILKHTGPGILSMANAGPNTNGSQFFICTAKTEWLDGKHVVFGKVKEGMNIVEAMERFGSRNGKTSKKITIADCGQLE

As for `CO[C@@H](C)c1ncc(N2CCN(C)CC2)cc1-c1c2c3cc(cc4c3n1CCC4)-c1csc(n1)C[C@H](NC(=O)[C@@H]1C[C@H]1c1ncccn1)C(=O)N1CCC[C@H](N1)C(=O)OCC(C)(C)C2` (atropisomer, axis not shown) [Example 81, (1R,2R)-N-[(7S,13S)-20-[2-[(1S)-1-methoxyethyl]-5-(4-methylpiperazin-1-yl)-3-pyridyl]-17,17-dimethyl-8,14-dioxo-15-oxa-4-thia-9,21,30,31-tetrazahexacyclo[23.3.1.1^2,5.1^9,13.0^19,27.0^21,26]hentriaconta-1 (28),2,5 (31),19,25 (29),26-hexaen-7-yl]-2-pyrimidin-2-yl-cyclopropanecarboxamide], the IC50 was found to be 23.4 nM in the assay on AGS cells (KRAS G12D); 5.3 nM in assay [1]; 0.8 nM with SW620 cells (KRAS G12V); 30.5 nM against KRAS G12C-BRAF complex; 1.6 nM in assay [2]; 6.5 nM in assay [3]. This compound displayed a half-inhibitory concentration (IC50) in assay [4] of 1.2 nM.
Regarding `CO[C@@H](C)c1ncc(N2CCN(CC(F)F)CC2)cc1-c1c2c3cc(cc4c3n1CCC4)-c1csc(n1)C[C@H](NC(=O)[C@H]1[C@H](C)[C@@H]1C)C(=O)N1CCC[C@H](N1)C(=O)OCC(C)(C)C2` (atropisomer, axis not shown) [Example 109, (1r,2R,3S)-N-[(7S,13S)-20-[5-[4-(2,2-difluoroethyl)piperazin-1-yl]-2-[(1S)-1-methoxyethyl]-3-pyridyl]-17,17-dimethyl-8,14-dioxo-15-oxa-4-thia-9,21,30,31-tetrazahexacyclo[23.3.1.1^2,5.1^9,13.0^19,27.0^21,26]hentriaconta-1 (28),2,5 (31), 19,25 (29),26-hexaen-7-yl]-2,3-dimethyl-cyclopropanecarboxamide], the IC50 in the assay with AGS cells (KRAS G12D) turned out to be 5.1 nM; in assay [1], 2.8 nM; in the assay on SW620 cells (KRAS G12V), 0.6 nM; against KRAS G12C-BRAF complex, 6 nM; in assay [2], 0.9 nM; in assay [3], 4.1 nM. In assay [4], this compound gave an IC50 of 0.3 nM.
Take `CO[C@@H](C)c1ncc(N2CCN(C)CC2)cc1-c1c2c3cc(cc4c3n1CCC4)-c1csc(n1)C[C@H](NC(=O)[C@H]1C[C@@H]1C)C(=O)N1CCC[C@H](N1)C(=O)OCC(C)(C)C2` (atropisomer, axis not shown; (M)) [Example 2, (1S,2S)-N-[(7S,13S)-(20M)-20-[2-[(1S)-1-methoxyethyl]-5-(4-methylpiperazin-1-yl)-3-pyridyl]-17,17-dimethyl-8,14-dioxo-15-oxa-4-thia-9,21,30,31-tetrazahexacyclo[23.3.1.1^2,5.1^9,13.0^19,27.0^21,26]hentriaconta-1 (28),2,5 (31), 19,25 (29),26-hexaen-7-yl]-2-methyl-cyclopropanecarboxamide]: the concentration for half-maximal inhibition (IC50) came out at 29.9 nM in the assay on AGS cells (KRAS G12D); 10.1 nM in assay [1]; 1.2 nM in the assay on SW620 cells (KRAS G12V); 28.8 nM against KRAS G12C-BRAF complex; 3.4 nM in assay [2]; 3 nM in assay [3]. In assay [4], this compound came in with a 50% inhibitory concentration (IC50) of 1.4 nM.
`CO[C@@H](C)c1ncc(N2CCN(CC(F)(F)F)CC2)cc1-c1c2c3cc(cc4c3n1CCO4)-c1csc(n1)C[C@H](NC(=O)[C@H]1C[C@@H]1C)C(=O)N1CCC[C@H](N1)C(=O)OCC(C)(C)C2` (atropisomer, axis not shown; (M)) [Example 5, (1S,2S)-N-[(7S,13S)-(20M)-20-[2-[(1S)-1-methoxyethyl]-5-[4-(2,2,2-trifluoroethyl)piperazin-1-yl]-3-pyridyl]-17,17-dimethyl-8,14-dioxo-15,24-dioxa-4-thia-9,21,30,31-tetrazahexacyclo[23.3.1.1^2,5.1^9,13.0^19,27.0^21,26]hentriaconta-1 (28),2,5 (31), 19,25 (29),26-hexaen-7-yl]-2-methyl-cyclopropanecarboxamide]: the half-inhibitory concentration (IC50) in the assay on AGS cells (KRAS G12D) is 70 nM; in assay [1] it was 17.3 nM; in the assay with SW620 cells (KRAS G12V) it was 4.6 nM; at KRAS G12C-BRAF complex, 34.8 nM; in assay [2] it was 6.2 nM; in assay [3], 21.2 nM. Besides, the IC50 in assay [4] turned out to be 2.8 nM.
For `CO[C@@H](C)c1ncc(N2CCOCC2)cc1-c1c2c3cc(cc4c3n1CCC4)-c1csc(n1)C[C@H](NC(=O)[C@H]1C[C@@H]1C(F)F)C(=O)N1CCC[C@H](N1)C(=O)OCC(C)(C)C2` (atropisomer, axis not shown; (M)) [Example 6, (1S,2S)-2-(difluoromethyl)-N-[(7S,13S)-(20M)-20-[2-[(1S)-1-methoxyethyl]-5-morpholino-3-pyridyl]-17,17-dimethyl-8,14-dioxo-15-oxa-4-thia-9,21,30,31-tetrazahexacyclo[23.3.1.1^2,5.1^9,13.0^19,27.0^21,26]hentriaconta-1 (28),2,5 (31), 19,25 (29),26-hexaen-7-yl]cyclopropanecarboxamide], the half-maximal inhibitory concentration (IC50) with AGS cells (KRAS G12D) was determined as 19.4 nM; in assay [1] it was 3 nM; in the assay on SW620 cells (KRAS G12V), 1.6 nM; at KRAS G12C-BRAF complex, 11.1 nM; in assay [2], 1.4 nM; in assay [3] it was 5.6 nM. The compound also registered a 50% inhibitory concentration (IC50) in assay [4] of 0.8 nM.
For `CO[C@@H](C)c1ncc(N2CCOCC2)cc1-c1c2c3cc(cc4c3n1CCC4)-c1csc(n1)C[C@H](NC(=O)[C@H]1[C@@H]3COC[C@@H]31)C(=O)N1CCC[C@H](N1)C(=O)OCC(C)(C)C2` (atropisomer, axis not shown; (M)) [Example 7, (1S,5R,6r)-N-[(7S,13S)-(20M)-20-[2-[(1S)-1-methoxyethyl]-5-morpholino-3-pyridyl]-17,17-dimethyl-8,14-dioxo-15-oxa-4-thia-9,21,30,31-tetrazahexacyclo[23.3.1.1^2,5.1^9,13.0^19,27.0^21,26]hentriaconta-1 (28),2,5 (31), 19,25 (29),26-hexaen-7-yl]-3-oxabicyclo[3.1.0]hexane-6-carboxamide], the IC50 is 13.1 nM in the assay on AGS cells (KRAS G12D); 2.4 nM in assay [1]; 0.8 nM in the assay with SW620 cells (KRAS G12V); 9.4 nM against KRAS G12C-BRAF complex; 1.6 nM in assay [2]; 7.9 nM in assay [3]. This compound gave an IC50 in assay [4] of 1.2 nM.
As for `CO[C@@H](C)c1ncc(N2CCOCC2)cc1-c1c2c3cc(cc4c3n1CCO4)-c1csc(n1)C[C@H](NC(=O)[C@H]1C[C@@H]1C)C(=O)N1CCC[C@H](N1)C(=O)OCC(C)(C)C2` (atropisomer, axis not shown; (M)) [Example 8, (1S,2S)-N-[(7S,13S)-(20M)-20-[2-[(1S)-1-methoxyethyl]-5-morpholino-3-pyridyl]-17,17-dimethyl-8,14-dioxo-15,24-dioxa-4-thia-9,21,30,31-tetrazahexacyclo[23.3.1.1^2,5.1^9,13.0^19,27.0^21,26]hentriaconta-1 (28),2,5 (31), 19,25 (29),26-hexaen-7-yl]-2-methyl-cyclopropanecarboxamide], the IC50 with AGS cells (KRAS G12D) was 18.7 nM; in assay [1], 5.9 nM; with SW620 cells (KRAS G12V), 1.1 nM; at KRAS G12C-BRAF complex, 23.7 nM; in assay [2], 2.6 nM; in assay [3] it was 7.1 nM. Besides, in assay [4], the IC50 was 1.2 nM.
As for `CO[C@@H](C)c1ncc(N2CCN(C)CC2)cc1-c1c2c3cc(cc4c3n1CCC4)-c1csc(n1)C[C@H](NC(=O)C13C4CC1CC3C4)C(=O)N1CCC[C@H](N1)C(=O)OCC(C)(C)C2` (stereo partly drawn) [Example 72, N-[(7S,13S)-(20M)-20-[2-[(1S)-1-methoxyethyl]-5-(4-methylpiperazin-1-yl)-3-pyridyl]-17,17-dimethyl-8,14-dioxo-15-oxa-4-thia-9,21,30,31-tetrazahexacyclo[23.3.1.1^2,5.1^9,13.0^19,27.0^21,26]hentriaconta-1 (28),2,5 (31), 19,25 (29),26-hexaen-7-yl]tricyclo[3.1.1.0^3,6]heptane-6-carboxamide], the IC50 was found to be 31.5 nM at KRAS G12C-BRAF complex, 2.3 nM in assay [2], 41.5 nM in assay [3] and 4.8 nM in assay [4].
